What follows are compounds tested on SMARTCAR-MTH1-wt-HiBiT (Jurkat.7 cells) (assay: HiBit Lytic Assay (HiBit DC50, MTH1 degraders of Table 2)). Settings: Jurkat.7 SMARTCAR-MTH1-wt-HiBiT cells, compound treatment time 4 hr, 11-point half log dose response.
Assay type: cell-based, human
Experimental: Example 3. HiBit Lytic Assay
• Compound is made at 10 mM, half log dilution, 11 points. • MDR plates can also be ordered from Frontier with same format. • 1. Barcode a 384LDV plate (384-well Low Dead Volume Microplate, Labcyte LP-0200) (Echo compatible) on the left side. • 2. Transfer 13.6 μL of 10 mM compound into column 1 of LDV plate (Labcyte). • 3. Fill column 2-11 and column 23 of MDR plate with 9.30 μL of DMSO. • 4. Serial dilute 3.16 fold from column 1 to 2 by transferring 4.30 μL from column 1 to column 2, and so on to column 11. *Change tip in every dilution to prevent compound carryover effect! • 5. Seal the plate with Plate Sealer, then store the MDR plate at room temperature for short term storage and in −20° C. for long term storage.
• Cells are treated with 30 nL of each compound at 10 mM, half log dilution, 11 points with final concentration of 1000 nM or 833 nM, half log dilution, 11 points, in duplicates. Final DMSO concentration is 0.1%. • 1. Barcode the plates made on the left side and label the plates with silver marker. • 2. Dispense with the following scheme: • a. 30 nL of compound into corresponding wells in cell plates via Echo550 with “MDR32_HiBiT16_30 nL”. Top concentration will be 1000 nM. • 3. Seal the plate with Plate Sealer.
• Cells are dispensed at density specified in Cell Line Table in 384-well microplate. • 1. Culture cells to between 50-80% of confluence in sterile culture flasks of appropriate size. • 2. For Adherent Cell Lines: • a. Aspirate off growth media in culture flask, and wash off the Phenol Red media with 5 mL of 1×PBS. • b. Add 5 mL of Trypsin to the cells, incubate at 37° C. for 5 minutes. • c. Add 5 mL of growth media to the trypsinzed cells, and resuspend. • 3. Remove 10 μL of cells, and resuspend the cells with 10 μL of Trypan Blue. Insert the solution to counting chamber slide, and count the cells via cell counter. • 4. Adjust the cell concentration to specified plating density, and strain the cells with cell strainer. • 5. Dispense the cells via E1-ClipTip™ Electronic Multichannel Pipettes or Multidrop™ Combi Reagent Dispenser with Standard tube dispensing cassette: • a. Prime the cassette with 10-20 mL of ddH2O. • b. Prime the cassette with 10-20 mL of cells. • c. Dispense the cells at low speed for 30 μL/well in Corning® 384 Well Low Flange Black Flat Bottom Polystyrene TC-Treated Microplate. • d. Wash the cassette with 10-20 mL of ddH2O, follow by 10-20 mL of 70% EtOH, then again with 10-20 mL of ddH2O. • 6. Incubate the plates at 37° C.×compound treatment time.
• 1. If not already, bring Nano-Glo® HiBiT Lytic Buffer to room temperature. • 2. Determine the amount of reagent needed. A volume of reagent equal to the volume of media in the well should be added (i.e. 30 μL of cells will need 30 μL of HiBiT Lytic reagent). • 3. Into a given volume of buffer, dilute the substrate 50-fold and the LgBiT protein 100-fold. For example, to make 10 ml of reagent, add the following: • 10 ml Nano-Glo® HiBiT Lytic Buffer • 200 μl Nano-Glo® HiBiT Lytic Substrate • 100 μl LgBiT Protein • The reagent should be reconstituted immediately before use. However, once reconstituted, it should take about 4 hours for the activity to decrease 10%. • 4. Cool down the cell plate to room temperature for 10-15 minutes without lid. • 5. Dispense the HiBiT Lytic Reagent via E1-ClipTip™ Electronic Multichannel Pipettes or Multidrop™ Combi Reagent Dispenser with Standard tube dispensing cassette: • a. Prime the cassette with 10-20 mL of ddH2O. • b. Prime the cassette with 10-20 mL of CTG 2.0. • c. Dispense the HiBiT Lytic Reagent at medium speed for 30 μL/well in cell plate to column 1-23 (column 24 will be used as plate background). • d. Wash the cassette with 10-20 mL of ddH2O, follow by 10-20 mL of 70% EtOH, then again with 10-20 mL of ddH2O. • 6. Incubate the cell plate at room temperature for 10 minutes without lid. • 7. […]

DC50, < 100 nM:
CNC(=O)c1cnc2ccc(-c3ccc(C(=O)NCCCCCCCCc4cccc5c4CN(C4CCC(=O)NC4=O)C5=O)cc3)cc2c1Nc1ccccc1 (stereo not drawn) [Compound 378, 4-anilino-6-[4-[8-[2-(2,6-dioxo-3-piperidyl)-1-oxo-isoindolin-4-yl]octylcarbamoyl]phenyl]-N-methyl-quinoline-3-carboxamide]
CNC(=O)c1cnc2cc(C(F)(F)F)c(-c3ccc(C(=O)NCCCCNC(=O)COc4cccc5c4C(=O)N(C4CCC(=O)NC4=O)C5=O)c(F)c3)cc2c1Nc1ccccc1 (stereo not drawn) [Compound 379, 6-(4-((4-(2-((2-(2,6-dioxopiperidin-3-yl)-1,3-dioxoisoindolin-4-yl)oxy)acetamido)butyl)carbamoyl)-3-fluorophenyl)-N-methyl-4-(phenylamino)-7-(trifluoromethyl)quinoline-3-carboxamide]
CNC(=O)c1cnc2cc(OC)c(-c3ccc(C(=O)NCCCCNC(=O)[C@@H](C)Nc4cccc5c4C(=O)N(C4CCC(=O)NC4=O)C5=O)nc3)cc2c1Nc1ccccc1 (stereo partly drawn) [Compound 382, 6-(6-((4-((2R)-2-((2-(2,6-dioxopiperidin-3-yl)-1,3-dioxoisoindolin-4-yl)amino)propanamido)butyl)carbamoyl)pyridin-3-yl)-7-methoxy-N-methyl-4-(phenylamino)quinoline-3-carboxamide]
CNC(=O)c1cnc2ccc(-c3ccc(CCCCCNC(=O)CNc4cccc5c4C(=O)N(C4CCC(=O)NC4=O)C5=O)nc3)cc2c1Nc1ccccc1 (stereo not drawn) [Compound 385, 4-anilino-6-[6-[5-[[2-[[2-(2,6-dioxo-3-piperidyl)-1,3-dioxo-isoindolin-4-yl]amino]acetyl]amino]pentyl]-3-pyridyl]-N-methyl-quinoline-3-carboxamide]
CNC(=O)c1cnc2cc(C(F)(F)F)c(-c3ccc(C(=O)NCCCCn4cc(CNc5cccc6c5C(=O)N(C5CCC(=O)NC5=O)C6=O)nn4)nc3)cc2c1Nc1ccccc1 (stereo not drawn) [Compound 386, 6-(6-((4-(4-(((2-(2,6-dioxopiperidin-3-yl)-1,3-dioxoisoindolin-4-yl)amino)methyl)-1H-1,2,3-triazol-1-yl)butyl)carbamoyl)pyridin-3-yl)-N-methyl-4-(phenylamino)-7-(trifluoromethyl)quinoline-3-carboxamide]
CNC(=O)c1cnc2ccc(-c3nc(C(=O)NCCCCNC(=O)CNc4cccc5c4C(=O)N(C4CCC(=O)NC4=O)C5=O)cs3)cc2c1Nc1ccccc1 (stereo not drawn) [Compound 387, 2-[4-anilino-3-(methylcarbamoyl)-6-quinolyl]-N-[4-[[2-[[2-(2,6-dioxo-3-piperidyl)-1,3-dioxo-isoindolin-4-yl]amino]acetyl]amino]butyl]thiazole-4-carboxamide]
CNC(=O)c1cnc2cc(C(F)(F)F)c(-c3ccc(C(=O)NCCCCNC(=O)CNc4cccc5c4C(=O)N(C4CCC(=O)NC4=O)C5=O)nc3)cc2c1Nc1ccccc1 (stereo not drawn) [Compound 388, 6-(6-((4-(2-((2-(2,6-dioxopiperidin-3-yl)-1,3-dioxoisoindolin-4-yl)amino)acetamido)butyl)carbamoyl)pyridin-3-yl)-N-methyl-4-(phenylamino)-7-(trifluoromethyl)quinoline-3-carboxamide]
CNC(=O)c1cnc2cc(F)c(-c3ccc(C(=O)NCCCCn4cc(CNc5cccc6c5C(=O)N(C5CCC(=O)NC5=O)C6=O)nn4)nc3)cc2c1Nc1ccccc1 (stereo not drawn) [Compound 389, 6-(6-((4-(4-(((2-(2,6-dioxopiperidin-3-yl)-1,3-dioxoisoindolin-4-yl)amino)methyl)-1H-1,2,3-triazol-1-yl)butyl)carbamoyl)pyridin-3-yl)-7-fluoro-N-methyl-4-(phenylamino)quinoline-3-carboxamide]
COc1ccc(CNc2c(C(=O)NC3CC3)cnc3cc(OC)c(-c4ccc(C(=O)NCCCCn5cc(CNc6cccc7c6C(=O)N(C6CCC(=O)NC6=O)C7=O)nn5)nc4)cc23)cc1 (stereo not drawn) [Compound 395, N-cyclopropyl-6-[6-[4-[4-[[[2-(2,6-dioxo-3-piperidyl)-1,3-dioxo-isoindolin-4-yl]amino]methyl]triazol-1-yl]butylcarbamoyl]-3-pyridyl]-7-methoxy-4-[(4-methoxyphenyl)methylamino]quinoline-3-carboxamide]
COc1cc2ncc(C(=O)NC3CC3)c(Nc3ccccc3)c2cc1-c1ccc(C(=O)NCCCCn2cc(CNc3cccc4c3C(=O)N(C3CCC(=O)NC3=O)C4=O)nn2)nc1 (stereo not drawn) [Compound 396, 4-anilino-N-cyclopropyl-6-[6-[4-[4-[[[2-(2,6-dioxo-3-piperidyl)-1,3-dioxo-isoindolin-4-yl]amino]methyl]triazol-1-yl]butylcarbamoyl]-3-pyridyl]-7-methoxy-quinoline-3-carboxamide]
CNc1c(C(=O)NC2CC2)cnc2cc(OC)c(-c3ccc(C(=O)NCCCCn4cc(CNc5cccc6c5C(=O)N(C5CCC(=O)NC5=O)C6=O)nn4)nc3)cc12 (stereo not drawn) [Compound 397, N-cyclopropyl-6-[6-[4-[4-[[[2-(2,6-dioxo-3-piperidyl)-1,3-dioxo-isoindolin-4-yl]amino]methyl]triazol-1-yl]butylcarbamoyl]-3-pyridyl]-7-methoxy-4-(methylamino)quinoline-3-carboxamide]
COc1cc2ncc(C(=O)NC3CC3)c(N)c2cc1-c1ccc(C(=O)NCCCCn2cc(CNc3cccc4c3C(=O)N(C3CCC(=O)NC3=O)C4=O)nn2)nc1 (stereo not drawn) [Compound 398, 4-amino-N-cyclopropyl-6-[6-[4-[4-[[[2-(2,6-dioxo-3-piperidyl)-1,3-dioxo-isoindolin-4-yl]amino]methyl]triazol-1-yl]butylcarbamoyl]-3-pyridyl]-7-methoxy-quinoline-3-carboxamide]
CNc1c(C(=O)NC2CC2)cnc2cc(F)c(-c3ccc(C(=O)NCCCCCCCc4cnc5c(c4)CN(C4CCC(=O)NC4=O)C5=O)c(F)c3)cc12 (stereo not drawn) [Compound 401, N-cyclopropyl-6-[4-[7-[6-(2,6-dioxo-3-piperidyl)-7-oxo-5H-pyrrolo[3,4-b]pyridin-3-yl]heptylcarbamoyl]-3-fluoro-phenyl]-7-fluoro-4-(methylamino)quinoline-3-carboxamide]
CNc1c(C(=O)NC2CC2)cnc2cc(F)c(-c3ccc(C(=O)NCCCCCCCCc4cnc5c(c4)CN(C4CCC(=O)NC4=O)C5=O)c(F)c3)cc12 (stereo not drawn) [Compound 405, N-cyclopropyl-6-[4-[8-[6-(2,6-dioxo-3-piperidyl)-7-oxo-5H-pyrrolo[3,4-b]pyridin-3-yl]octylcarbamoyl]-3-fluoro-phenyl]-7-fluoro-4-(methylamino)quinoline-3-carboxamide]
CNc1c(C(=O)NC2CC2)cnc2cc(F)c(-c3ccc(C(=O)NCCCCCCCCc4ccc5c(n4)CN(C4CCC(=O)NC4=O)C5=O)c(F)c3)cc12 (stereo not drawn) [Compound 408, N-cyclopropyl-6-[4-[8-[6-(2,6-dioxo-3-piperidyl)-5-oxo-7H-pyrrolo[3,4-b]pyridin-2-yl]octylcarbamoyl]-3-fluoro-phenyl]-7-fluoro-4-(methylamino)quinoline-3-carboxamide]
